Literature values as cited in patent publication US20220378705A1, “METHOD FOR PREPARING PHARMACEUTICAL COMPOSITIONS CONTAINING AMPHIPHILIC ACTIVE INGREDIENTS” (PHARMADEV SA, priority 2019, published 2022).

Experiments:
[1] = octanol-water partition coefficient

SMILES | Log Po/w [1] | pKa
O=C(c1ccccc1)c1ccc2n1CCC2C(=O)O (racemic) [KETOROLAC, 2-amino-2-(hydroxymethyl)propane-1,3-2-amino-2-(hydroxymethyl)-1,3-propanediol(±)-5-benzoyl-2,3-dihydro-1H-pyrrolizine-1-carboxylic acid diol(±)-5-benzoyl-2,3-dihydro-1H-pyrrolizine-1-carboxylic acid] | 2.3 | 3.84
O=C(O)c1cccnc1Nc1cccc(C(F)(F)F)c1 [NIFLUMIC ACID] | 4.43 | 4.44
Cc1cccc(Nc2ccccc2C(=O)O)c1C [MEFENAMIC ACID, 2-(2,3-dimethylanilino)benzoic acid] | 4.20 | 
CC(C(=O)O)c1ccc(-c2ccccc2)c(F)c1 (stereo not shown) [FLURBIPROFEN, 2-(3-fluoro-4-phenylphenyl)propanoic acid] | 4.16 | 4.17
